Non-standard residues stand in square brackets, D forms with d. No end group written: not given here. pS = N[C@@H](COP(=O)(O)O)C(=O)O

From US8263326B2, “Compounds and methods for modulating activation of NF-κB” (Signal Pharmaceuticals, LLC, priority 1998, dated 2012) come the findings set out here.

Assay [1] deals with IκBα-ubiquitin ligase (pIκBα ubiquitination). The assay can be described thus: In vitro ubiquitination assay of phosphorylated, NF-κB complex-associated IκBα in HeLa cell extract. The assay is classed as biochemical, human. The note with it: peptide at a concentration of 400 μM; Bestatin 40 μg/ml. Here is the method: Following incubation, 1 μl of anti-p65 serum was added, and the NF-κB immune complex was immobilized to Protein A-Sepharose® and subjected to in vitro ubiquitination in HeLa cell extract as described by Alkalay et al. Ubiquitinated proteins were separated by SDS-PAGE and visualized by autoradiography.
To identify the IκBα-ubiquitin ligase recognition motif, various peptides were added at varying concentrations to the reaction mixtures in the presence of the peptidase inhibitor Bestatin (40 μg/ml). The peptides spanned the N-terminal signaling domain of the protein, and were phosphorylated at one or both serine residues (32 and 36), or were unmodified or serine-substituted. These peptides were included in the ubiquitination reaction at different concentrations and tested for inhibition of pIκBα specific ubiquitination. When conjugation of free IκBα was monitored, the translated protein was added directly to the conjugation reaction mixture.

Assay [2] concerns E-selectin expression in primary human vascular endothelial cells (HUVEC). The assay can be described thus: Microinjection into HUVEC, TNFα activation, E-selectin staining. Format: cell-based. Conditions: microinjected peptide, TNFα 3 hours. On the procedure:
(§1) HeLa cells were plated on a grid coverslips (Cellocate, Eppendorf) 18 hours before microinjection. Microinjection was performed with a 22 amino acid pIκBα peptide (pp21; Table I and SEQ ID NO:9) or a control phospho-Fos peptide (SEQ ID NO: 10) using a semi-automated apparatus (Eppendorf). Peptides were injected into the cell cytoplasm at a concentration of 5 mg/ml in 100 mM KCl, 5 mM Na2HPO4 (pH 7.2), and immediately activated with TNFα (200 units/mL) for either 20 minutes (for NF-κB translocation) or 3 hours (for E-selectin expression). Following activation, the cells were fixed and stained with p65 specific antibodies (Mercurio et al., Genes & Dev. 7:705, 1993; Santa Cruz) or monoclonal anti-E-selectin antibodies (R&D Systems).
To further assess the functional consequences of NF-κB inhibition, the IκB-E3 inhibitory peptide was microinjected into primary human vascular endothelial cells (HUVEC; Chen et al, J. Immunol 155:3538, 1995). These cells respond to TNFα stimulation by surface expression of NF-κB regulated adhesion proteins, such as E-selection. HUVEC cells were plated, microinjected and stimulated as described above. Three hours post stimulation the cells were fixed and stained for expression of the NF-κB dependent E-selection. 75%-85% of the HUVEC cells were intensely stained for E-selectin following TNFα stimulation in several experiments. […] In contrast, the control pp-Fos peptide had no effect on E-selectin expression, as compared to non-microinjected cells (FIGS. 4F and 4H, column 4). Microinjection of a control, S32736A substituted IκBα peptide had no effect on the rate of E-selectin expression.

The test system of assay [3] is IκB E3 in HeLa lysate. As to the kind of experiment: Fractionation of HeLa lysate over peptide-Sepharose columns, flow-through tested in ubiquitination assay. Format: binding, human. The note with it: peptide coupled to NHS-Sepharose, HeLa extract, FIG. 3A. On the procedure: pIκBα-ubiquitin conjugation and degradation requires a full complement of the ubiquitin system enzymes: E1, a specific E2 derived from the ubiquitin system fraction I, E2F1 (Alkalay et al., Proc. Natl. Acad. Sci. USA 92:10599, 1995; Chen et al., Cell 84:853, 1996) and a Fraction II-component E3. To identify the ubiquitin system component involved in the substrate recognition, HeLa lysate was fractionated over IκBα phosphopeptide columns, and the flow-through fractions were assayed for pIκBα conjugation. Peptides were coupled to NHS-Sepharose® (Pharmacia) according to the manufacturer's instructions at a concentration of 2 mg/ml. 100 μg of HeLa extract were incubated with 2.5 μl coupled resin in the presence of 0.1% NP40 and 3% ovalbumin for 1 hour at 4° C. The resin was discarded and the unbound material tested in the ubiquitination assay described above.

Assay [4] relates to pIκBα degradation. As to the kind of experiment: Ubiquitin-dependent in vitro degradation assay with extracts from stimulated HeLa cells. The note with it: 40 μM peptide, FIG. 2. The assay is classed as biochemical, human. Here is the method:
FIG. 2 is an autoradiogram depicting the results of an in vitro ubiquitin-dependent degradation assay performed using extracts from stimulated HeLa cells. In each lane of the SDS-PAGE, the level of phosphorylated (upper band) and non-phosphorylated (lower band) HA-tagged IκBα polypeptide (SEQ ID NO: 12) following the degradation assay is shown. […] In lanes 2-6, ATP was included in the reaction mixture. 40 μM candidate modulating agents were added to the reactions shown in lanes 3-6: doubly phosphorylated IκBα peptide (pp21 (SEQ ID NO:9), lane 3); doubly phosphorylated IκBα peptide (pp19 (SEQ ID NO:8), lane 4); c-Fos phosphopeptide (ppFos (SEQ ID NO: 10), lane 5); and non-phosphorylated IκBα peptide (p21 (SEQ ID NO:9), lane 6).
The inhibitory pIκBα peptides were tested in a complementary ubiquitin-dependent in vitro degradation assay (Orian et al., J. Biol. Chem. 270:21707, 1995; Stancovski et al., Mol. Cell. Biol. 75:7106, 1995). Using this assay, only pIκBα derived from stimulated cells is degraded in vitro in a ubiquitin-dependent manner, whereas the non-phosphorylated IκBα from the same cell extract is not subject to degradation.

The subject of assay [5] is NF-κB nuclear translocation in HeLa cells. As to the kind of experiment: Microinjection into HeLa cells, TNFα activation, p65 nuclear staining. Format: cell-based, human. The note with it: 5 mg/ml peptide microinjected. Here is the method: as §1
In assay [6] the target is T1, pIκBα (Homo sapiens, UniProt P25963).
T1 construct: The IκBα/NF-κB complex was immunopurified from HeLa cells; endogenous in cells; host or cells: HeLa cells
As to the kind of experiment: Binding of immobilized FLAG-tagged E3 family members to IκBα/NF-κB complex (Western blot). Conditions: FIG. 11A. On the procedure: FIGS. 11A-11C are Western blots illustrating binding and ubiquitination specificity of E3 ubiquitin ligase family members. Within these figures, mβ-TrCP indicates mouse β-TrCP, hβ-TrCP indicates human β-TrCP, Δβ-TrCP indicates human β-TrCP with a deletion of the F box region and Slimb indicates the Drosophila Slimb protein. FIG. 11A illustrates selective binding to pIκBα. Proteins were immunoprecipitated through a FLAG epitope from transfected 293T cells, incubated with immunopurified IκBα/NF-κB complex, which had been treated (−/+IKK) as indicated and the bound material was analyzed by Western blotting with the indicated antibodies. […] FIG. 11C illustrates in vitro ubiquitination of pIκBα by the E3 family member proteins. Immunopurified FLAG-tagged proteins were incubated with ^35 S-labeled IκBα/NF-κB complexes, treated (−/+IKK) as indicated and subject to ubiquitination in the presence of ATPγS, ubiquitin. E1 and UBC5C. The IκBα substrate (composed of full-length and two degradation products), pIκBα-polyubiquitin conjugates and molecular size markers are indicated on the left.
The ability of these proteins to bind pIκBα specifically and assist in its ubiquitination was examined in a cell-free system. The IκBα/NF-κB complex was immunopurified from HeLa cells and the immune complex was either phosphorylated with IKK2-EE or mock-phosphorylated as described above. It was then incubated with the following immobilized FLAG-tagged E3 family members immunoprecipitated from transfected 293 cells: mouse β-TrCP (mβ-TrCP), human β-TrCP (hβ-TrCP), human β-TrCP with a deletion of the F box region residues 122-168 (Δβ-TrCP) and the Drosophila Slimb protein. The bound material was analyzed by Western blotting with anti-IκBα and anti-FLAG antibodies. […] Furthermore, β-TrCP binding was abrogated by a peptide representing the pIκBα recognition motif (pp10; DRHDS(PO3)GLDS(PO3)M (SEQ ID NO:29); see FIG. 11B, lane 3), but not by the control peptide (lane 4), specifying the site of pIκBα recognition of the conserved DS(PO3)GLDS(PO3) (SEQ ID NO:30) sequence.

T1 sequence (P25963 whole entry): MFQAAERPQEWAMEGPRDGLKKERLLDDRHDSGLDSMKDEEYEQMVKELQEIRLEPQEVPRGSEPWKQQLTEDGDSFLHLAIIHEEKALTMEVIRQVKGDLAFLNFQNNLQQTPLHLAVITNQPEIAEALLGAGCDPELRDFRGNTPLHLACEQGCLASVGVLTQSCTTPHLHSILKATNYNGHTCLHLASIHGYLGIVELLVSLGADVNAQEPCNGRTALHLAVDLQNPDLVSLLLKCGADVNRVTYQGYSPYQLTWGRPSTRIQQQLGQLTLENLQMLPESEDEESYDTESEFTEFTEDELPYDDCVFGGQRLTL
T1 sequence (Q04206 whole entry partner): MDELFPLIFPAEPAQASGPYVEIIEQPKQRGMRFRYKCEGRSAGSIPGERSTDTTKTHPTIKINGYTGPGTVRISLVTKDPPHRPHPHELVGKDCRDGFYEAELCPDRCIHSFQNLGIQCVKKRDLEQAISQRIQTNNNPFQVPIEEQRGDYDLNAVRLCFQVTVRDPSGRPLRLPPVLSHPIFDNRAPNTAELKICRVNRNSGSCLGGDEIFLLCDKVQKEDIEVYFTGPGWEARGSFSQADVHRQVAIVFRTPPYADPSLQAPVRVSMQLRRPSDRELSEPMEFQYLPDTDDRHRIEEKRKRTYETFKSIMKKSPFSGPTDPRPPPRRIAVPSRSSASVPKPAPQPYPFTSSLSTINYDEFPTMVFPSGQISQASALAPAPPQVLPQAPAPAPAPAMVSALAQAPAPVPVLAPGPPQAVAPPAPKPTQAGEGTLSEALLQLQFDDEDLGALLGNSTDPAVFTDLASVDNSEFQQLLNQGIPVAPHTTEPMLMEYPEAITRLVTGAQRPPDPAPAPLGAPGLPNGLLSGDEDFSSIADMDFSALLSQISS

Turning to “p21 S/A: serine 32, 36 to alanine substituted IκBα peptide, SEQ ID NO:11 (CKKERLLDDRHDAGLDAMKDEE; listed as Homo sapiens)”, in assay [1], the “effect on the ubiquitination of pIκB” value is “no detectable effect”. For the same molecule, the “effect on E-selectin expression” value in assay [2] is on record as “no effect”. Besides, the “IκBα conjugation capacity of column flow-through fraction” value in assay [3] was “retained full IκBα conjugation capacity”.

Turning to “p21: non-phosphorylated IκBα peptide, SEQ ID NO:9 (CKKERLLDDRHDSGLDSMKDEE; listed as Homo sapiens)”, the “effect on the ubiquitination of pIκB” value in assay [1] is given as “no detectable effect”. In assay [4], the “effect on specific pIκBα degradation” value is recorded as “no effect”.

Turning to “pp21: doubly phosphorylated IκBα peptide, SEQ ID NO:9; 22 amino acid pIκBα peptide (CKKERLLDDRHD[pS]GLD[pS]MKDEE; listed as Homo sapiens)”, in assay [5] (TNFα 200 units/mL 20 minutes, several experiments), the “microinjected cells in which TNFα-stimulated NF-κB activation was abolished” value was 50%-70%. Further, the “microinjected cells with inhibition of E-selectin expression” value in assay [2] is given as 70%-80%.

Regarding “ppFos: c-Fos phosphopeptide, SEQ ID NO:10, control (IGRRGKVEQLSPEEEEKRR; not fully specified (residue 11); also: phosphorylated, sites not given here; listed as Homo sapiens)”, the “effect on the ubiquitination of pIκB” value in assay [1] was “no detectable effect”. The “effect on the rate of NF-κB induced nuclear translocation” value in assay [5] (compared to non-microinjected cells) is on record as “no effect”. For the same molecule, in assay [2], the “effect on E-selectin expression” value is “no effect”. Further, the “IκBα conjugation capacity of column flow-through fraction” value in assay [3] is given as “retained full IκBα conjugation capacity”. The “effect on specific pIκBα degradation” value in assay [4] is listed as “no effect”.

B1: mβ-TrCP: FLAG-tagged mouse β-TrCP, E3 family member (protein)
chain: MDPAEAVLQEKALKFMNSSEREDCNNGEPPRKIIPEKNSLRQTYNSCARLCINQETVCLTSTAMKTENCVAKAKLANGTSSMIVPKQRKLSASYEKEKELCVKYFEQWSESDQVEFVEHLISQMCHYQHGHINSYLKPMLQRDFITALPARGLDHIAENILSYLDAKSLCAAELVCKEWYRVTSDGMLWKKLIERMVRTDSLWRGLAERRGWGQYLFKNKPPDENAPPNSFYRALYPKIIQDIETIESNWRCGRHSLQRIHCRSETSKGVYCLQYDDQKIVSGLRDNTIKIWDKSTLECKRILTGHTGSVLCLQYDERVIITGSSDSTVRVWDVNAGEMLNTLIHHCEAVLHLRFNNGMMVTCSKDRSIAVWDMASPTDITLRRVLVGHRAAVNVVDFDDKYIVSASGDRTIKVWNTSTCEFVRTLNGHKRGIACLQYRDRLVVSGSSDNTIRLWDIECGACLRVLEGHEELVRCIRFDNKRIVSGAYDGKIKVWDLMAALDPRAPAGTLCLRTLVEHSGRVFRLQFDEFQIVSSSHDDTILIWDFLNDPAAHAEPPRSPSRTYTYISR
modifications: left off: small tags and cut ends
notes: FLAG-tagged mouse β-TrCP, E3 family member
Turning to B1, in assay [6] (comparison between family members), the “relative binding of IκBα / pIκBα” value is “far better than the highly homologous Drosophila protein”. The “binding to IKK-phosphorylated versus mock-phosphorylated IκBα” value in assay [6] (FLAG-tagged protein from transfected 293 cells) is “exclusively bound IKK-phosphorylated, but not mock-phosphorylated, IκBα”.
